Values after ≈ are worked out from the molar mass of the structure shown.
Key:
Shigella sonnei = assay: Antibacterial activity against Shigella sonnei 51592; type: functional
Streptococcus pyogenes = assay: Antibacterial activity against Streptococcus pyogenes 556; type: functional
Streptococcus pneumoniae [1] = assay: Antibacterial activity against Streptococcus pneumoniae ATCC 6301; type: functional
[2] = tested on: Acinetobacter calcoaceticus; assay: Antibacterial activity against Acinetobacter calcoaceticus 25001; type: functional
Pseudomonas aeruginosa [3] = assay: Ratio of MIC for compound to MIC for LVFX against Pseudomonas aeruginosa 17; type: functional
[4] = Cytotoxicity against african green monkey Vero cells after 24 hrs; type: cell-based; details: chlorocebus sabaeus
Enterobacter cloacae = assay: Antibacterial activity against Enterobacter cloacae 45301; type: functional
Pseudomonas aeruginosa [5] = assay: Ratio of MIC for compound to MIC for CPFX against Pseudomonas aeruginosa 17; type: functional
Enterococcus faecalis [6] = assay: Antibacterial activity against Enterococcus faecalis ATCC 51299; type: functional
Staphylococcus aureus [7] = assay: Antibacterial activity against methicillin-sensitive Staphylococcus aureus 08-49; type: functional
Staphylococcus aureus [8] = assay: Antibacterial activity against methicillin-resistant Staphylococcus aureus 08-52; type: functional
Staphylococcus aureus [9] = assay: Antibacterial activity against Staphylococcus aureus ATCC 13709; type: functional
Streptococcus pneumoniae [10] = assay: Antibacterial activity against penicillin-resistant Streptococcus pneumoniae 08-2; type: functional
[11] = tested on: Staphylococcus epidermidis; assay: Antibacterial activity against Staphylococcus epidermidis ATCC 12228; type: functional
Enterococcus faecalis [12] = assay: Antibacterial activity against vancomycin-resistant Enterococcus faecalis EFL1004; type: functional
[13] = tested on: Staphylococcus epidermidis; assay: Antibacterial activity against methicillin-resistant Staphylococcus epidermidis 08-18; type: functional
Klebsiella aerogenes = assay: Antibacterial activity against Enterobacter aerogenes 45102; type: functional
Escherichia coli [14] = assay: Antibacterial activity against Extended spectrum beta-lactamase producing Escherichia coli 08-5; type: functional
Morganella morganii = assay: Antibacterial activity against Morganella morganii 49086; type: functional
Providencia rettgeri = assay: Antibacterial activity against Proteus rettgeri 49006; type: functional
Escherichia coli [15] = assay: Antibacterial activity against Escherichia coli ATCC 25922; type: functional
[16] = tested on: Staphylococcus epidermidis; assay: Antibacterial activity against methicillin-sensitive Staphylococcus epidermidis 08-17; type: functional
Proteus vulgaris = assay: Antibacterial activity against Proteus vulgaris 56; type: functional
Pseudomonas aeruginosa [17] = assay: Antibacterial activity against Pseudomonas aeruginosa 17; type: functional
Serratia marcescens = assay: Antibacterial activity against Serratia marcescens 41002; type: functional
Salmonella typhi = assay: Antibacterial activity against Bacillus typhi 50035; type: functional, Salmonella enterica subsp. enterica serovar Typhi; details: Salmonella enterica
Klebsiella pneumoniae = assay: Antibacterial activity against Klebsiella pneumoniae ATCC 700603; type: functional
Pseudomonas aeruginosa [18] = assay: Ratio of MIC for compound to MIC for GMFX against Pseudomonas aeruginosa 17; type: functional

| Structure (SMILES) | MIC (Shigella sonnei) [µg/mL] | MIC (Streptococcus pyogenes) [µg/mL] | MIC (Streptococcus pneumoniae [1]) [µg/mL] | MIC [2] [µg/mL] | CC50 at 24 h [4] [µg/mL] | MIC (Enterobacter cloacae) [µg/mL] | MIC (Enterococcus faecalis [6]) [µg/mL] | MIC (Staphylococcus aureus [7]) [µg/mL] | MIC (Staphylococcus aureus [8]) [µg/mL] | MIC (Staphylococcus aureus [9]) [µg/mL] | MIC (Streptococcus pneumoniae [10]) [µg/mL] | MIC [11] [µg/mL] | MIC (Enterococcus faecalis [12]) [µg/mL] | MIC [13] [µg/mL] | MIC (Klebsiella aerogenes) [µg/mL] | MIC (Escherichia coli [14]) [µg/mL] | MIC (Morganella morganii) [µg/mL] | MIC (Providencia rettgeri) [µg/mL] | MIC (Escherichia coli [15]) [µg/mL] | MIC [16] [µg/mL] | further results |
| --- | --- | --- | --- | --- | --- | --- | --- | --- | --- | --- | --- | --- | --- | --- | --- | --- | --- | --- | --- | --- | --- |
| CO/N=C1\CCN(c2nc3c(cc2F)c(=O)c(C(=O)O)cn3-c2ccc(F)cc2F)CC1CN (racemic) | 2 (≈ 4.21 µM) | 1 (≈ 2.1 µM) | 1 (≈ 2.1 µM) | 4 (≈ 8.41 µM) | 96 (≈ 202 µM) | 2 (≈ 4.21 µM) | 2 (≈ 4.21 µM) | 0.25 (≈ 0.526 µM) | 2 (≈ 4.21 µM) | 0.5 (≈ 1.05 µM) | 0.5 (≈ 1.05 µM) | 0.5 (≈ 1.05 µM) | 4 (≈ 8.41 µM) | 0.5 (≈ 1.05 µM) | 2 (≈ 4.21 µM) | > 128 | 4 (≈ 8.41 µM) | 8 (≈ 16.8 µM) | 1 (≈ 2.1 µM) | 2 (≈ 4.21 µM) | Ratio (Pseudomonas aeruginosa [3]): 2; Ratio (Pseudomonas aeruginosa [5]): 2; MIC (Proteus vulgaris): 8 µg/mL (≈ 16.8 µM); MIC (Pseudomonas aeruginosa [17]): 4 µg/mL (≈ 8.41 µM); MIC (Serratia marcescens): 8 µg/mL (≈ 16.8 µM); MIC (Salmonella typhi): 2 µg/mL (≈ 4.21 µM); MIC (Klebsiella pneumoniae): 32 µg/mL (≈ 67.3 µM); Ratio (Pseudomonas aeruginosa [18]): 2 |
| CCO/N=C1\CCN(c2c(F)cc3c(=O)c(C(=O)O)cn(C4CC4)c3c2OC)CC1CN (racemic) | 8 (≈ 17.9 µM) | 8 (≈ 17.9 µM) | 8 (≈ 17.9 µM) | 8 (≈ 17.9 µM) | 173 (≈ 388 µM) | > 128 | 4 (≈ 8.96 µM) | 0.25 (≈ 0.56 µM) | 2 (≈ 4.48 µM) | 1 (≈ 2.24 µM) | 4 (≈ 8.96 µM) | 2 (≈ 4.48 µM) | 8 (≈ 17.9 µM) | 2 (≈ 4.48 µM) | 16 (≈ 35.8 µM) | > 128 | 16 (≈ 35.8 µM) | 32 (≈ 71.7 µM) | 4 (≈ 8.96 µM) | 4 (≈ 8.96 µM) | MIC (Proteus vulgaris): 32 µg/mL (≈ 71.7 µM); MIC (Pseudomonas aeruginosa [17]): 32 µg/mL (≈ 71.7 µM); MIC (Serratia marcescens): 32 µg/mL (≈ 71.7 µM); MIC (Salmonella typhi): 4 µg/mL (≈ 8.96 µM); MIC (Klebsiella pneumoniae): 128 µg/mL (≈ 287 µM) |
| CCn1cc(C(=O)O)c(=O)c2cc(F)c(N3CC/C(=N\OC)C(CN)C3)c(F)c21 (racemic) | 4 (≈ 9.79 µM) | 64 (≈ 157 µM) | 32 (≈ 78.4 µM) | 16 (≈ 39.2 µM) | > 500 | > 128 | 8 (≈ 19.6 µM) | 4 (≈ 9.79 µM) | 8 (≈ 19.6 µM) | 2 (≈ 4.9 µM) | 16 (≈ 39.2 µM) | 8 (≈ 19.6 µM) | 32 (≈ 78.4 µM) | 4 (≈ 9.79 µM) | 8 (≈ 19.6 µM) | > 128 | 4 (≈ 9.79 µM) | 8 (≈ 19.6 µM) | 4 (≈ 9.79 µM) | 16 (≈ 39.2 µM) | MIC (Proteus vulgaris): 8 µg/mL (≈ 19.6 µM); MIC (Pseudomonas aeruginosa [17]): 32 µg/mL (≈ 78.4 µM); MIC (Serratia marcescens): 8 µg/mL (≈ 19.6 µM); MIC (Salmonella typhi): 4 µg/mL (≈ 9.79 µM); MIC (Klebsiella pneumoniae): 128 µg/mL (≈ 313 µM) |
| CCO/N=C1\CCN(c2nc3c(cc2F)c(=O)c(C(=O)O)cn3-c2ccc(F)cc2F)CC1CN (racemic) | 2 (≈ 4.09 µM) | 4 (≈ 8.17 µM) | 2 (≈ 4.09 µM) | 4 (≈ 8.17 µM) | 72.6 (≈ 148 µM) | 2 (≈ 4.09 µM) | 1 (≈ 2.04 µM) | 0.25 (≈ 0.511 µM) | 1 (≈ 2.04 µM) | 0.25 (≈ 0.511 µM) | 0.5 (≈ 1.02 µM) | 0.25 (≈ 0.511 µM) | 4 (≈ 8.17 µM) | 0.25 (≈ 0.511 µM) | 2 (≈ 4.09 µM) | > 128 | 4 (≈ 8.17 µM) | 8 (≈ 16.3 µM) | 2 (≈ 4.09 µM) | 1 (≈ 2.04 µM) | Ratio (Pseudomonas aeruginosa [3]): 2; Ratio (Pseudomonas aeruginosa [5]): 2; MIC (Proteus vulgaris): 4 µg/mL (≈ 8.17 µM); MIC (Pseudomonas aeruginosa [17]): 4 µg/mL (≈ 8.17 µM); MIC (Serratia marcescens): 16 µg/mL (≈ 32.7 µM); MIC (Salmonella typhi): 2 µg/mL (≈ 4.09 µM); MIC (Klebsiella pneumoniae): 32 µg/mL (≈ 65.4 µM); Ratio (Pseudomonas aeruginosa [18]): 2 |
| CO/N=C1\CCN(c2c(F)cc3c(=O)c(C(=O)O)cn(C4CC4)c3c2OC(F)F)CC1CN (racemic) | 16 (≈ 34.2 µM) | 4 (≈ 8.54 µM) | 4 (≈ 8.54 µM) | 2 (≈ 4.27 µM) | 335 (≈ 715 µM) | 2 (≈ 4.27 µM) | 1 (≈ 2.13 µM) | 0.125 (≈ 0.267 µM) | 1 (≈ 2.13 µM) | 0.25 (≈ 0.534 µM) | 2 (≈ 4.27 µM) | 0.5 (≈ 1.07 µM) | 4 (≈ 8.54 µM) | 0.5 (≈ 1.07 µM) | 2 (≈ 4.27 µM) | > 128 | 4 (≈ 8.54 µM) | 4 (≈ 8.54 µM) | 1 (≈ 2.13 µM) | 1 (≈ 2.13 µM) | MIC (Proteus vulgaris): 4 µg/mL (≈ 8.54 µM); MIC (Pseudomonas aeruginosa [17]): 8 µg/mL (≈ 17.1 µM); MIC (Serratia marcescens): 8 µg/mL (≈ 17.1 µM); MIC (Salmonella typhi): 0.5 µg/mL (≈ 1.07 µM); MIC (Klebsiella pneumoniae): 32 µg/mL (≈ 68.3 µM) |
| CCO/N=C1\CCN(c2c(F)cc3c(=O)c(C(=O)O)cn(CC)c3c2F)CC1CN (racemic) | 128 (≈ 303 µM) | 64 (≈ 152 µM) | 64 (≈ 152 µM) | 128 (≈ 303 µM) | 410 (≈ 969 µM) | > 128 | 16 (≈ 37.9 µM) | 4 (≈ 9.47 µM) | 8 (≈ 18.9 µM) | 4 (≈ 9.47 µM) | 32 (≈ 75.8 µM) | 8 (≈ 18.9 µM) | 32 (≈ 75.8 µM) | 8 (≈ 18.9 µM) | 16 (≈ 37.9 µM) | > 128 | 16 (≈ 37.9 µM) | 32 (≈ 75.8 µM) | 8 (≈ 18.9 µM) | 32 (≈ 75.8 µM) | MIC (Proteus vulgaris): 16 µg/mL (≈ 37.9 µM); MIC (Pseudomonas aeruginosa [17]): 128 µg/mL (≈ 303 µM); MIC (Serratia marcescens): 16 µg/mL (≈ 37.9 µM); MIC (Salmonella typhi): 8 µg/mL (≈ 18.9 µM); MIC (Klebsiella pneumoniae): > 128 µg/mL |

From ChEMBL document CHEMBL1777766, “Design, synthesis and in vitro antibacterial activity of 7-(4-alkoxyimino-3-aminomethylpiperidin-1-yl)fluoroquinolone derivatives” (Bioorg Med Chem Lett, 2011)
